Source: patent US8067424B2, “Selective inhibitors for cyclin-dependent kinases” (Emory University, priority 2007, dated 2011)
Read-outs that look alike come from different tables or passages of the source.

What was measured:
RSK1 = RSK1 (Homo sapiens, UniProt Q15418); experiment: Kinase screen: MAPKAP-K1a assay; assay type: biochemical
Protocol: (§1) Generally, the same procedure was used for all assays. Since the total assay volume was 25.5 microliters, 0.5 microliters of inhibitors at 51× assay concentration were added to the plates before any other addition.
(§2) The basic procedure was to add 0.5 microliters inhibitor/control in DMSO to plate. Fifteen microliters of enzyme/substrate/buffer mix were added and incubated for 5 min. Ten microliters MgATP at the relevant concentration were added and incubated for 30 min. The assay was stopped by adding 5 microliters of 3% orthophosphoric acid. The assay was transferred to a p81 filter plate and read in a scintillation counter of 30 sec/well. Note that this assay procedure was not followed for MKK1, which instead involved a two-step assay, and PKC alpha, which required the addition of lipid vesicles.
MAPKAP-K1a assay: MAPKAP-K1a (5-20 mU diluted in 20 mM MOPS pH 7.5, 1 mM EDTA, 0.01% Brij35, 5% glycerol, 0.1% b-mercaptoethanol, 1 mg/ml BSA) was assayed against […] (SEQ ID NO: 3) in a final volume of 25.5 μl containing 50 mM Na-b-glycerophosphate pH 7.5, 0.5 mM EDTA, 30 μM substrate peptide, 10 mM magnesium acetate and 0.05 mM [33P-g-ATP] (50-1000 cpm/pmole) and incubated for 40 min at room temperature. Assays were stopped by addition of 5 μl of 0.5 M (3%) orthophosphoric acid and then harvested onto P81 Unifilter plates with a wash buffer of 50 mM orthophosphoric acid.

BTK = BTK (Homo sapiens, UniProt Q06187); experiment: Kinase screen: BTK assay; assay type: biochemical; conditions: 10 micromolar compound; for remaining activity at 10 µM: read-out: mean activity remaining (as a percentage of the original activity), BTK
Chain of BTK (Q06187 whole entry, species assumed): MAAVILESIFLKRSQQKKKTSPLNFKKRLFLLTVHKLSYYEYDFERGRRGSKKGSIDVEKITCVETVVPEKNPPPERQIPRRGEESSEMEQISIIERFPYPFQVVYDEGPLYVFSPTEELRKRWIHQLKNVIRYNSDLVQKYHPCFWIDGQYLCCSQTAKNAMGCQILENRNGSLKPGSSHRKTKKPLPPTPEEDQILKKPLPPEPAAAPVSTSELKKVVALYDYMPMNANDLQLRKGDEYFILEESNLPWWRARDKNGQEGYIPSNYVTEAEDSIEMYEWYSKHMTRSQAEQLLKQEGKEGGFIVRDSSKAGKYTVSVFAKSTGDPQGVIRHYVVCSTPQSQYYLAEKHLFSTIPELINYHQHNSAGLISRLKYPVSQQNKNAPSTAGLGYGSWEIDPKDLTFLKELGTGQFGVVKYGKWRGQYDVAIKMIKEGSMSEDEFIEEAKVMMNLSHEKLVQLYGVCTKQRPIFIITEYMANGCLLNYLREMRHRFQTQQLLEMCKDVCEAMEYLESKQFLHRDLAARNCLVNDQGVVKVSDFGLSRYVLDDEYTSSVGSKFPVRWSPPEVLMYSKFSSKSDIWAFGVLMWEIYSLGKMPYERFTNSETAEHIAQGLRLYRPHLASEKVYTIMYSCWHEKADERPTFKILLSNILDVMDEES
Protocol: as §1, §2
(50-1000 cpm/pmole) and incubated for 30 min at room temperature. Assays were stopped by addition of 5 μl of 0.5 M (3%) orthophosphoric acid and then harvested onto P81 Unifilter plates with a wash buffer of 50 mM orthophosphoric acid.

CDK2/cyclin A complex = molecular target: T1, CDK2/cyclin A complex (Homo sapiens, UniProt P24941); experiment: CDK2/cyclin A kinase assay (as for CDK7); assay type: biochemical; conditions: for remaining activity at 0.1 µM: 100 nM, mean of three (standard deviation), read-out: CDK2 % remaining kinase activity after incubation with 100 nM of compound; for IC50: Table 7, mean of three experiments, read-out: CDK2 kinase inhibition in vitro (IC50)
T1 construct: purchased Proqinase GmbH, Germany
Procedure, shortened: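 Run as the CDK7 protocol with 50 ng CDK2/cyclin A or 100 ng CDK9/cyclin T; compound 30 min at 30 °C, then 2 μM ATP final for 20 min at 30 °C. ATP depletion by luciferase luminescence (PKLight), triplicate, normalised to no-enzyme and enzyme controls.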

[1] = molecular target: T2, CDK7 complex (CDK7, Cyclin H, MAT1) (Homo sapiens, UniProt P50613); experiment: CDK7/CycH/MAT1 trimeric complex kinase assay (PKLight luciferase); assay type: biochemical; conditions: 100 nM; mean of three (standard deviation); read-out: CDK7 % remaining kinase activity after incubation with 100 nM of compound
T2 construct: purchased Proqinase GmbH, Germany
T2 sequence (P50613 whole entry): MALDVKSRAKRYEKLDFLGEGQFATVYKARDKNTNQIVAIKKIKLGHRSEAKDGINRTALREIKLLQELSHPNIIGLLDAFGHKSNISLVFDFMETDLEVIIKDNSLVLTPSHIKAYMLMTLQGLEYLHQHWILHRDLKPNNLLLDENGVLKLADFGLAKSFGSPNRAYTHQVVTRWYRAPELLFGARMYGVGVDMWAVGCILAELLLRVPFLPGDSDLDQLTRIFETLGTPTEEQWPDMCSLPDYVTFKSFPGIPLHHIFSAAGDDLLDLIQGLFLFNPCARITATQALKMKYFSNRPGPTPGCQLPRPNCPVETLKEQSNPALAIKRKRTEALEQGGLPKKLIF
T2 sequence (P51946 whole entry partner): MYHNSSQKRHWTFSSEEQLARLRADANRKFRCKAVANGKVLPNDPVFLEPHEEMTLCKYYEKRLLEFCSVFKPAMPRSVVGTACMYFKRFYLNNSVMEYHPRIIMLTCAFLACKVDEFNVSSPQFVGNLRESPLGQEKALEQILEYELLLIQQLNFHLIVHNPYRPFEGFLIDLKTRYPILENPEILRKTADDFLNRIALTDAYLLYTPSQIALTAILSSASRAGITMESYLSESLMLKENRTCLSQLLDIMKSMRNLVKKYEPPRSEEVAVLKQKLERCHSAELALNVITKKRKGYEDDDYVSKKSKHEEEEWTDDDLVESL
T2 sequence (P51948 whole entry partner): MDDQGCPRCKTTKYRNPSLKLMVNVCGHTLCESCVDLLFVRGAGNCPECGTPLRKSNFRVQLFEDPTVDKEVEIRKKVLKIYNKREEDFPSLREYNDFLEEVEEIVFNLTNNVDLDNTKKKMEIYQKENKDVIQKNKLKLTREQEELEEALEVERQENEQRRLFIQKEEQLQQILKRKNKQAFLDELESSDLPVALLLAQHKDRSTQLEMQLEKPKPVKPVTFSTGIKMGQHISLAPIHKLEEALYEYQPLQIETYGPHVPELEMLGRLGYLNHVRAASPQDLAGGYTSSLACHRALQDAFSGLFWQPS
Procedure, shortened: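 Compound was preincubated with the kinase for 30 min at 30 °C; the reaction then ran for 20 min at 30 °C with 2 μM ATP final. Remaining ATP was measured by PKLight luciferase luminescence at 560 nm. Values were corrected against the no-enzyme control and expressed relative to enzyme-only activity (100%), in triplicate.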

HL-60(TB) = experiment: cells; conditions: Homo sapiens
SF-268 = experiment: cells; conditions: Homo sapiens
MALME-3M = experiment: cells; conditions: Homo sapiens
CAKI-1 = experiment: cells; conditions: Homo sapiens
[2] = 10 micromolar compound, read-out: mean activity remaining (as a percentage of the original activity), RSK1
[3] = SW-620, log10 concentration −4.0
[4] = SW-620, log10 concentration −5.0
[5] = SW-620, log10 concentration −7.0
[6] = SW-620, log10 concentration −8.0
[7] = OVCAR-4, log10 concentration −4.0
[8] = OVCAR-4, log10 concentration −5.0
[9] = OVCAR-4, log10 concentration −6.0
[10] = OVCAR-4, log10 concentration −7.0
[11] = OVCAR-4, log10 concentration −8.0
[12] = OVCAR-5, log10 concentration −4.0
[13] = OVCAR-5, log10 concentration −5.0
[14] = OVCAR-5, log10 concentration −6.0
[15] = OVCAR-5, log10 concentration −7.0
[16] = OVCAR-5, log10 concentration −8.0

Chain of RSK1 (Q15418 whole entry, species assumed): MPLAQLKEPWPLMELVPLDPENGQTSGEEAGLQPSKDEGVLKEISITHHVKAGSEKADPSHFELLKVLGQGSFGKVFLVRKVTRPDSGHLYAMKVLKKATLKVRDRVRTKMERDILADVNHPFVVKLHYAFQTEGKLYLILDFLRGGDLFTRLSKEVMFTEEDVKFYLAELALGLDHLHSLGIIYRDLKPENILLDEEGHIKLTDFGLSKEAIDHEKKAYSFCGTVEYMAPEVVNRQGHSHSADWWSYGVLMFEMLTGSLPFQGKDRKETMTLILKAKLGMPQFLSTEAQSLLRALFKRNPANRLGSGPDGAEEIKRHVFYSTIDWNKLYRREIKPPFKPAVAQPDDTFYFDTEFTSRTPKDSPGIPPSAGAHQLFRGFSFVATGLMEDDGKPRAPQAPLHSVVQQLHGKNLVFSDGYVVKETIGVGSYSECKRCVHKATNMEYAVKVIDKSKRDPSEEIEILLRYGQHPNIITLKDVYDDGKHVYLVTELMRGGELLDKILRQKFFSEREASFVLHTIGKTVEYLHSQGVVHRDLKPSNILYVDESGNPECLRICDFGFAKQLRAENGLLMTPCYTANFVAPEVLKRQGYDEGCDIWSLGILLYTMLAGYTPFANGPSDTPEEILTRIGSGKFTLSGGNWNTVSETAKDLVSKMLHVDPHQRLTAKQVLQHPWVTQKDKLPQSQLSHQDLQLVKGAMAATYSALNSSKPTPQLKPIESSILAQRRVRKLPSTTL

CC(C)c1cnn2c(NCc3ccccc3)cc(NCCCCCCCN)nc12 [BS-181]
remaining activity at 10 µM (RSK1; RSK1, 10 μM, read-out: Mean Remaining Enzyme Activity (%)): 67%

C=C[C@H](CO)Nc1cc(NCc2ccccc2)n2ncc(C(C)C)c2n1 [ICEC0065]
remaining activity at 10 µM (BTK): 94% | remaining activity at 0.1 µM (CDK2/cyclin A complex): 95% | IC50 (CDK2/cyclin A complex): > 1000 nM | remaining activity at 0.1 µM [1]: 80% | remaining activity at 10 µM (RSK1; [2]): 79%

CC(C)c1cnn2c(NCc3ccccc3)cc(N[C@@H](CO)[C@H](O)CO)nc12 [ICEC0318, (3S)-3-(7-(Benzylamino)-3-isopropylpyrazolo[1,5-a]pyrimidin-5-ylamino)butane-1,2,4-triol]
remaining activity at 10 µM (BTK): 91% | TGI (SW-620; SW-620 (Colon Cancer)): 1.00E−6 | Mean Optical Densities (SW-620; [3]): 0.101 | Percent Growth (SW-620; [3]): −29% | Mean Optical Densities (SW-620; [4]): 0.125 | Percent Growth (SW-620; [4]): −12% | Mean Optical Densities (SW-620; SW-620, log10 concentration −6.0): 0.412 | Mean Optical Densities (SW-620; [5]): 0.782 | Percent Growth (SW-620; [5]): 92% | Mean Optical Densities (SW-620; [6]): 0.839 | Percent Growth (SW-620; [6]): 100% | TGI (A498; A498 (Renal Cancer)): 4.83E−7 | Mean Optical Densities (A498; A498, log10 concentration −4.0): 0.386 | Percent Growth (A498; A498, log10 concentration −4.0): −54% | Mean Optical Densities (A498; A498, log10 concentration −5.0): 0.365 | Percent Growth (A498; A498, log10 concentration −5.0): −56% | Mean Optical Densities (A498; A498, log10 concentration −6.0): 0.414 | Percent Growth (A498; A498, log10 concentration −6.0): −50% | Mean Optical Densities (A498; A498, log10 concentration −7.0): 1.321 | Percent Growth (A498; A498, log10 concentration −7.0): 109% | Mean Optical Densities (A498; A498, log10 concentration −8.0): 1.280 | Percent Growth (A498; A498, log10 concentration −8.0): 100% | GI50 (HL-60(TB); HL-60): 166 nM | CC50 (HL-60(TB); HL-60, read-out: LC50): > 100 µM | GI50 (SF-268; SF-268): 326 nM | CC50 (SF-268; SF-268, read-out: LC50): > 100 µM | GI50 (MALME-3M): 404 nM | CC50 (MALME-3M; read-out: LC50): > 100 µM | TGI (OVCAR-4; OVCAR-4 (Ovarian Cancer)): 1.45E−5 | Mean Optical Densities (OVCAR-4; [7]): 0.269 | Percent Growth (OVCAR-4; [7]): −25% | Mean Optical Densities (OVCAR-4; [8]): 0.399 | Percent Growth (OVCAR-4; [8]): 5% | Mean Optical Densities (OVCAR-4; [9]): 0.445 | Percent Growth (OVCAR-4; [9]): 10% | Mean Optical Densities (OVCAR-4; [10]): 1.138 | Percent Growth (OVCAR-4; [10]): 95% | Mean Optical Densities (OVCAR-4; [11]): 1.246 | Percent Growth (OVCAR-4; [11]): 109% | GI50 (CAKI-1; CAKI-1): 249 nM | CC50 (CAKI-1; CAKI-1, read-out: LC50): > 100 µM | TGI (OVCAR-5; OVCAR-5 (Ovarian Cancer)): >1.00E−4 | Mean Optical Densities (OVCAR-5; [12]): 0.618 | Percent Growth (OVCAR-5; [12]): 10% | Mean Optical Densities (OVCAR-5; [13]): 0.688 | Percent Growth (OVCAR-5; [13]): 19% | Mean Optical Densities (OVCAR-5; [14]): 0.665 | Percent Growth (OVCAR-5; [14]): 16% | Mean Optical Densities (OVCAR-5; [15]): 1.165 | Percent Growth (OVCAR-5; [15]): 82% | Mean Optical Densities (OVCAR-5; [16]): 1.211 | Percent Growth (OVCAR-5; [16]): 88% | remaining activity at 10 µM (RSK1; [2]): 75%

CC(C)c1cnn2c(NCc3ccccc3F)cc(NCCCCCN)nc12 [ICEC-0232]
mean activity remaining (as a percentage of the original activity), BTK (BTK): 90% | mean activity remaining (as a percentage of the original activity), RSK1 (RSK1; 10 micromolar compound): 24%

CC[C@H](CO)Nc1cc(NCc2ccccc2)n2ncc(C(C)C)c2n1 [ICEC0067]
remaining activity at 10 µM (BTK): 84% | remaining activity at 0.1 µM (CDK2/cyclin A complex): 100% | IC50 (CDK2/cyclin A complex): > 1000 nM | remaining activity at 0.1 µM [1]: 49% | remaining activity at 10 µM (RSK1; [2]): 62%
